Assay results: publication PMC8508526 (Cancers, 2021)
Positions of bridges follow the written chain, without caps; N, C: chain ends. No end group written: not given here.

B1: TAX2 cyclic peptide (peptide)
peptide: CEVSQLLKGDAC
modifications: disulfide 1-12 (inferred); also: acetate salt
notes: disulfide linked 12 amino-acid cyclic peptide stretch of CD47; The two end residues are replaced by cysteines to close the ring; also called TAX2 peptide; TAX2 drug candidate; source: synthetic peptide (solid-phase synthesis, Fmoc chemistry; Genecust), purity >98%

What was measured:
[1] = 0.25 to 20 mg/mL in MilliQ water, 0.9% NaCl or 0.9% NaCl with 15 mM Tris; from lyophilized powder; A205, path length 0.05 cm, compared to powder weighing
Procedure: Absorbance values at 205 nm were measured on a NanoVue Plus^TM spectrophotometer (GE Healthcare, Chicago, IL, USA) using a quartz cuvette with a 0.05 cm path length.

[2] = system: A2780 human ovarian carcinoma cells; conditions: A2780 model, 10 mg/kg i.p. thrice a week for 2 weeks
Procedure: (§1) Suspensions of A2780 or SK-OV-3 human ovarian carcinoma cells were s.c. inoculated (5 × 10^6 cells in 200 µL per animal) into the left flank of BALB/c athymic nude mice. Tumor measurements (length, L; width, W) were performed twice a week, using a digital caliper, and total tumor volume was calculated according to V = 0.5 × L × W^2. For randomization, mice were allocated to groups (n = 13–16 in each) based on similar mean and distribution of tumor volume on day 13. […] Body weight (BW) was monitored every 2 to 3 days, while clinical signs and behavior pattern were daily checked until study termination. Loss of 15% BW or tumor volume exceeding 1 cm^3 were considered an indication for euthanasia, as well as severe tumor necrosis, as it was sometimes associated with loss of body fluid and/or infection.

[3] = system: SK-OV-3 human ovarian carcinoma cells; conditions: SK-OV-3 model, 10 mg/kg i.p. thrice a week for 7 weeks
Procedure: as §1

platelets = experiment: Washed platelets flow cytometry analysis of activation (CD62P); type: cell-based, mouse; conditions: washed platelets pooled from 4 treated ID8 tumor-bearing mice per group; resting and 3.33 U/mL thrombin; CD62P exposure
Procedure: Washed platelets were freshly prepared as described elsewhere from a pool of 4 mouse blood samples by treatment group (ID8 allograft i.p. model). […] To promote activation, platelets were incubated with 3.33 U.mL^−1 thrombin (#D8537, Sigma-Aldrich) for 5 min, at room temperature. Platelets were probed with both a (FITC)-conjugated monoclonal anti-CD41 antibody (clone MWReg30; #553848, BD Pharmingen) and a (PE)-conjugated monoclonal anti-CD62P antibody (clone Wug.E9; #M130-2, Emfret Analytics) for 10 min, at room temperature, in the dark. IgG1-PE (clone R3-34; #P190_2, Emfret Analytics) and IgG1-FITC (clone R3-34; #553924, BD Pharmingen) were employed as isotype controls. Platelet isolation was performed by gating in forward and side scatter, as well as relying on CD41 positivity, while CD62P (P-selectin) membrane exposure reflects platelet activation.
Figure S2. […] 8 weeks old female and
(a) Photographs of spleen isolated on
Whitney U test statistical analyses (* p < 0.05).
mice having received chronic TAX2 or combination therapy. Upon sacrifice, blood was collected from
samples by treatment group.
investigated by flow cytometry. Platelet population was isolated based on anti‐CD41 positivity,
Activation was analyzed on […]

[4] = freshly collected EDTA plasma from Sprague Dawley rats, 500 µL, spiked at 50 ng/mL, 2 h at 4 °C or room temperature, sampled every 30 min, HPLC-MS/MS, n = 2 per condition (method b35: 1 µM, 37 °C, human plasma)
[5] = target: T1, recombinant mouse thrombospondin-1 with a C-terminal 6His tag (mouse, UniProt P35441 19-1170); experiment: SPR; Biacore T200; rmTSP-1 captured by its C-terminal 6His tag on anti-histidine antibody amine-coupled to a CM5 chip (2931 RU); peptides injected for 120 s at 30 uL/min, 25 °C; running buffer 10 mM HEPES, 0.15 M NaCl, 0.05% surfactant P20, 5 mM CaCl2, pH 7.4; single injections at 1 mM; single-cycle kinetics at 15.625-250 uM; contact-time experiment (30-600 s) at 500 uM TAX2; two-state reaction model, apparent KD; conditions: both partners purified
T1 construct: thrombospondin-1 (TSP-1), mouse, recombinant; also called rmTSP-1; TSP-1; source: bought: R&D Systems (#7859-TH); not shown: 6His, C-terminal, kept
T1 sequence (P35441 19-1170): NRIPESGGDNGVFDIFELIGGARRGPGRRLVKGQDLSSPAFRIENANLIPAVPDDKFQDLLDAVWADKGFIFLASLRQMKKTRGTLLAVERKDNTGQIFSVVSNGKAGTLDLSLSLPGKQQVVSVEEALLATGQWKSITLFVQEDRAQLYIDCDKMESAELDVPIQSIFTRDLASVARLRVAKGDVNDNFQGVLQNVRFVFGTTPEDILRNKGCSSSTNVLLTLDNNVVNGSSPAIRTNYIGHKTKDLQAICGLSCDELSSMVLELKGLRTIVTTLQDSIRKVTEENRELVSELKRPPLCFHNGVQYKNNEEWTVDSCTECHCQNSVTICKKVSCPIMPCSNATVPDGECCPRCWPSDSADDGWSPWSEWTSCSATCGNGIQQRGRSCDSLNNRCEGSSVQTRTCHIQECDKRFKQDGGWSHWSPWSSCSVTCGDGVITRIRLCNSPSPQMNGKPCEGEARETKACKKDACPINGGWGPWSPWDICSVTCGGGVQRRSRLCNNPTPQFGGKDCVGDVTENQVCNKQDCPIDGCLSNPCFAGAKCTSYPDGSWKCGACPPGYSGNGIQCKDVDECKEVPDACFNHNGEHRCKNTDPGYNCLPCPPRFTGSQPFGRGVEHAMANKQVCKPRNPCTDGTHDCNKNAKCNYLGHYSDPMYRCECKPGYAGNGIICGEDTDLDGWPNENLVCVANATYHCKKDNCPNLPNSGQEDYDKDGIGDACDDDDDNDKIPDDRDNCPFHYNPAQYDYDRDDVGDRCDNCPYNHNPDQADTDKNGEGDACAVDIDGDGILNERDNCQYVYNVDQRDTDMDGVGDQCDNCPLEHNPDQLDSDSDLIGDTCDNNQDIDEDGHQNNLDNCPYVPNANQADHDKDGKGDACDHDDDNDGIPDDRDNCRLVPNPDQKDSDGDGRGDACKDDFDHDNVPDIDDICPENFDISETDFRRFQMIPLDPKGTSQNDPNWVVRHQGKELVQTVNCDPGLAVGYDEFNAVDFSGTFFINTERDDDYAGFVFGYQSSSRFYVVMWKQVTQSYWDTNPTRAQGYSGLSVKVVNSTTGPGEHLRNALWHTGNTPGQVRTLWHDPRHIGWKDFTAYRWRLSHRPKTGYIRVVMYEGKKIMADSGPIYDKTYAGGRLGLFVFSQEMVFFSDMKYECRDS

Row | binding result [5] | Molecule | solubility in aqueous solvents [1] | safety (body weight, clinical signs) [2] | safety (body weight, clinical signs) [3] | impact on platelet ability to activate (platelets) | stability in plasma (remaining TAX2, % of concentration at T0) [4]
1 |  | CC(C)C[C@@H]1NC(=O)[C@H](CC(C)C)NC(=O)[C@H](CCC(N)=O)NC(=O)[C@H](CO)NC(=O)[C@H](C(C)C)NC(=O)[C@H](CCC(=O)O)NC(=O)[C@@H](N)CSSC[C@@H](C(=O)O)NC(=O)[C@H](C)NC(=O)[C@H](CC(=O)O)NC(=O)CNC(=O)[C@H](CCCCN)NC1=O [TAX2] | completely soluble | appeared to be safe | appeared to be safe | Neither TAX2 monotherapy nor combined to anti-PD-1 mAb had any impact | remains stable in freshly collected plasma up to 2 hours
2 | binds | B1 |  |  |  |  | 
